Consider five compounds from patent publication US20040192734A1, “4-(3-aminomethylphenyl)piperidin-1-yl]-[5-(2-fluorophenylethynyl)furan-2-yl]-methanone as an inhibitor of mast cell tryptase” (AVENTIS PHARMACEUTICALS INC., priority 2002, published 2004).

“And” between values parts separate entries of the source, which are not always exact repeats. Equal entries are not always repeated. Structures can show the parent of a compound that is named as a salt. Where two headings read alike, the source gives them in different places.

Experiment [1] deals with T1, recombinant human β tryptase (Homo sapiens, UniProt Q15661).
T1 construct: made in house; host or cells: yeast cells
T1 sequence (Q15661 31-275): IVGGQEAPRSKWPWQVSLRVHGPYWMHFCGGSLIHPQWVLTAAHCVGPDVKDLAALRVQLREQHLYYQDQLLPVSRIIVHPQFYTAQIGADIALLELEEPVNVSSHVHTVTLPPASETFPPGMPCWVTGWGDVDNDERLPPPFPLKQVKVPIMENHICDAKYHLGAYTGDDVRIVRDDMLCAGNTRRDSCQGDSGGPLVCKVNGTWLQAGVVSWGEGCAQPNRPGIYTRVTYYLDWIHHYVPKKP
Description: β-Tryptase Inhibition (chromogenic assay). The experiment is classed as biochemical. The note with it: for Ki: chromogenic assay, substrate S2366 0.5 mM, room temperature, Ki calculated from IC50. The text has this:
Tr0yptase inhibition activity is confirmed using either isolated human lung tryptase or recombinant human β tryptase expressed in yeast cells. Essentially equivalent results are obtained using isolated native enzyme or the expressed enzyme. The assay procedure employs a 96 well microplate (Costar 3590) using L-pyroglutamyl-L-prolyl-L-arginine-para-nitroanilide (S2366: Quadratech) as substrate (essentially as described by McEuen et. al. Biochem Pharm, 1996, 52, pages 331-340). Assays are performed at room temperature using 0.5 mM substrate (2×Km) and the microplate is read on a microplate reader (Beckman Biomek Plate reader) at 405 nm wavelength. The inhibition constants (Ki) for the compound of the present invention and other structurally related compounds, are set forth in Table 1.
Materials and Methods for Trtase Primary Screen (Chromogenic Assay)
S2366 (Stock solutions of 2.5 mM).
Purified recombinant beta Tryptase Stocks of 310 μg/mL.
Add 60 μL of diluted substrate (final concentration of 500 μM in assay buffer) to each well
Add compound in duplicates, final concentration of 20 μM, volume 20 μL
Add enzyme at a final concentration of 50 ng/mL in a volume of 20 μL
Total volume for each well is 100 μL
Agitate briefly to mix and incubate at room temp in the dark for 30 minutes
Read absorbencies at 405 nM
Protocol (IC50 and Ki Determination)
The protocol is essentially the same as above except that the compound is added in duplicates at the following final concentrations: 0.01, 0.03, 0.1, 0.3, 1, 3, 10 uM (All dilutions carried out manually). For every assay, whether single point or IC50 determination, a standard compound is used to derive IC50 for comparison. From the IC50 value, the Ki can be calculated using the following formula:
Ki=IC50/(1+[Substrate]/Km).

In experiment [2] the test system is Airway Hyperresponsiveness (AHR) to histamine in sensitized guinea pigs. In words: Guinea Pig Model of Airway Hyperreactivity. It counts as in vivo. The note with it: for protective effect as measured by airway resistance / protective effect as measured by lung compliance: intravenous dosing at 0.3, 1 and 3 mg/kg; for Intravenous ID50 Dynamic Lung Compliance: Cdyn40, histamine challenge; for Intravenous ID50 Dynamic Lung Compliance / Intravenous ID50 Airway Hyperresponsiveness: ovalbumin-sensitized guinea pigs; for Intravenous ID50 Airway Hyperresponsiveness: airway resistance (RL300), histamine challenge.

Experiment [3] shares this test system. Description: Guinea Pig Model of Airway Hyperreactivity. The experiment is classed as in vivo. As to conditions: for protection against AHR to histamine, airway resistance: oral dosing, Structure (III) where X=H dosed at 3, 10, and 30 mg/kg; for protection against AHR to histamine, airway resistance / Oral ID50 Dynamic Lung Compliance / Oral ID50 Airway Hyperresponsiveness: 2 hours prior to ovalbumin challenge; for Oral ID50 Dynamic Lung Compliance: Cdyn40; for Oral ID50 Airway Hyperresponsiveness: airway resistance (RL300). Here is the method:
Sensitization and drug treatment: Male Hartley guinea pigs (225-250g) are sensitized with ovalbumin (0.5 mL of 1% solution, i.p. and s.c.). On day 4, animals received a booster injection (i.p.) of 0.5 mL of 1% ovalbumin. On day 21, animals are orally dosed (2 ml/kg) with either vehicle (0.5% methylcellulose/0.2% Tween 80) or test compound 2 hours prior to antigen challenge. Thirty minutes before antigen challenge the animals are also injected with mepyramine (30 mg/kg, i.p.) to prevent anaphylactic collapse. Animals are then exposed for 5 minutes to an aerosol of either saline (control animals) or 1% ovalbumin using a deVilbiss Ultraneb nebulizer.
AHR measurement: Eighteen to twenty four hours after challenge, animals are anesthetized with a combination of ketamine (133 mg/kg) and xylazine (24 mg/kg) given intramuscularly, surgically prepared and then mounted in a whole body plethysmograph for lung function measurement. Animals were connected to Ugo-Basile ventilators delivering a tidal volume of 1 mL/100 g at a rate of 50 breaths/minute via a tracheal cannula. The jugular vein is also cannulated for histamine challenge. A water filled oesophageal cannula is placed such that transpulmonary pressure could be recorded. Transpulmonary pressure is measured as the difference between the tracheal and esophageal cannulas using a differential pressure transducer. The volume, airflow, and transpulmonary pressure signals are monitored using a pulmonary analysis system (Buxco XA software) and used to calculate pulmonary resistance (cm H2O/mL/s) and dynamic compliance (mL/cm H2O). Airway resistance and dynamic compliance were computed on a breath by breath basis. Histamine is administered intravenously and reactivity to increasing concentrations (0.1-10 μg/kg) assessed. ID50's are estimated from the RL300 (histamine concentration required to 300% increase in lung resistance) and Cdyn40 (histamine concentration required to induce a 40% decrease in dynamic lung compliance) parameters deduced from the individual […] a histamine dose-response curves.

Experiment [4] concerns the target T1, recombinant human β tryptase. The note with it: greatest β-Tryptase inhibitory potency disclosed in U.S. application Ser. No. 09/843,126; cited from earlier work.
Setting [5] is: listed as compound of the present invention, trifluoroacetate.

Take `NCc1cccc(C2CCN(C(=O)c3cccc(C#Cc4ccccc4)c3)CC2)c1.O=C(O)C(F)(F)F` [Structure (II) where X = H, [4-(3-aminomethylphenyl)piperidin-1-yl]-(3-phenylethynylphenyl)methanone trifluoroacetate]: the Ki – broadly, a measure of affinity in units of concentration, obtained from inhibition or displacement – in experiment [1] is 106 nM. Besides, in experiment [2], the “protective effect as measured by airway resistance” value is “uniformly ineffective”, the “protective effect as measured by lung compliance” value is reported as “does not show any protective effects”, the “Intravenous ID50 Dynamic Lung Compliance” value is >3.0 mg/kg and the “Intravenous ID50 Airway Hyperresponsiveness” value is recorded as >3.0 mg/kg.

For the compound `NCc1cccc(C2CCN(C(=O)c3cccc(C#Cc4ccccc4F)c3)CC2)c1.O=C(O)C(F)(F)F` [Structure (II) where X=F, [4-(3-aminomethylphenyl)piperidin-1-yl]-[3-(2-fluorophenylethynyl)phenyl]methanone trifluoroacetate], the “fold increase in β-Tryptase inhibitory potency” value in experiment [1] (Structure (II) where X=F versus Structure (II) where X=H) is recorded as 1.09 fold. The Ki in experiment [1] was 97 nM.

In the case of `NCc1cccc(C2CCN(C(=O)c3ccc(C#Cc4ccccc4F)o3)CC2)c1` [Structure (III) where X = F, [4-(3-Aminomethylphenyl)piperidin-1-yl]-[5-(2-fluorophenylethynyl)furan-2-yl]-methanone trifluoroacetate], the Ki in experiment [1] was 7.6 to 9.7 nM and 7.6 nM and 9.7 nM. In experiment [2], the “protective effect as measured by airway resistance” value is “protective at all doses” and the “protective effect as measured by lung compliance” value was “protective at all doses”. In experiment [2] (setting [5]), the “Intravenous ID50 Dynamic Lung Compliance” value is reported as < 0.3 mg/kg and the “Intravenous ID50 Airway Hyperresponsiveness” value is on record as < 0.3 mg/kg. Also, in experiment [2] (trifluoroacetate), the “Intravenous ID50 Dynamic Lung Compliance” value is on record as <0.3 mg/kg and the “Intravenous ID50 Airway Hyperresponsiveness” value was <0.3 mg/kg. In experiment [3], the “protection against AHR to histamine, airway resistance” value is recorded as “significantly protects against AHR to histamine”; the “Oral ID50 Dynamic Lung Compliance” value lay in the range of 1 to 2 mg/kg; the “Oral ID50 Airway Hyperresponsiveness” value is 1 to 2 mg/kg. In experiment [3] (sensitized guinea pigs), the “effect on basal airway resistance” value was “no effect” and the “effect on basal dynamic lung compliance” value is reported as “no effect”.

Consider `NCc1cccc(C2CCN(C(=O)c3ccc(C#Cc4ccccc4)o3)CC2)c1.O=C(O)C(F)(F)F` [Structure (III) where X = H, [4-(3-aminomethylphenyl)piperidin-1-yl]-(5-phenylethynylfuran-2-yl)methanone trifluoroacetate], for which, in experiment [1] (Structure (III) where X=H versus Structure (II) where X=H), the “fold increase in β-Tryptase inhibitory potency” value is listed as 3.42 fold. Besides, the Ki in experiment [1] is 31 nM. Further, in experiment [2], the “protective effect as measured by airway resistance” value was “reversed airway resistance at the highest dose”, the “protective effect as measured by lung compliance” value is “does not show any protective effects”, the “Intravenous ID50 Dynamic Lung Compliance” value is listed as >3.0 mg/kg and the “Intravenous ID50 Airway Hyperresponsiveness” value lay within 1 to 3 mg/kg. Moreover, the “effect on lung compliance” value in experiment [3] (oral dosing at 3, 10, and 30 mg/kg) is reported as “No effect”. In experiment [3], the “protection against AHR to histamine, airway resistance” value is listed as “protective on airway resistance, but the effects are not statistically significant”; the “Oral ID50 Dynamic Lung Compliance” value is listed as >30 mg/kg; the “Oral ID50 Airway Hyperresponsiveness” value was “Protective at 3,”.

As for `NCc1cccc(C2CCN(C(=O)c3ccc(Cl)c(Cl)c3)CC2)c1` [[4-(3-Aminomethylphenyl)piperidin-1-yl]-(3,4-dichlorophenyl) methanonetrifluoroacetate], the Ki in experiment [4] is 31 nM.
